Test results taken from ChEMBL document CHEMBL1137339, “Improved therapeutic efficacy of doxorubicin through conjugation with a novel peptide drug delivery technology (Vectocell)” (J Med Chem, 2006).
Starred links: 1 amine or outer side, 2 acyl side, 3 side chain; linkers in the order of their positions; H or OH if unused. Non-standard residues stand in square brackets, D forms with d. Residues, ends and D or L forms follow the SMILES beside them. ξ: configuration not given here. *: point of attachment. X1 = COc1cccc2c1C(=O)c1c(O)c3c(c(O)c1C2=O)C[C@@](O)(C(=O)COC(=O)CCCN1C(=O)CC(*)C1=O)C[C@@H]3O[C@H]1C[C@H](N)[C@H](O)[C@H](C)O1; X4 = COc1cccc2c1C(=O)c1c(O)c3c(c(O)c1C2=O)C[C@@](O)(C(=O)CO)C[C@@H]3O[C@H]1C[C@H](NC(=O)CCCN2C(=O)CC(*)C2=O)[C@H](O)[C@H](C)O1; X2 = COc1cccc2c1C(=O)c1c(O)c3c(c(O)c1C2=O)C[C@@](O)(C(=O)C*)CC3O[C@H]1C[C@H](N)[C@H](O)[C@H](C)O1; X3 = COc1cccc2c1Cc1cc3c(cc1C2)C[C@@](O)(C(=O)CSCN*)C[C@@H]3O[C@H]1C[C@H](N)[C@H](O)[C@H](C)O1; CO = O=C([*:1])[*:2]; ξC = NC(CS)C(=O)O

Assays:
HCT-116 [1] = assay: Cytotoxicity against doxorubicin-sensitive HCT116 cell line by WST1 assay; format: functional, cell-based; details: Homo sapiens
MCF7 = assay: Cytotoxicity against doxorubicin-sensitive MCF7/6 cell line by WST1 assay; format: functional, cell-based; details: Homo sapiens
HCT-116 [2] = assay: Cytotoxicity against HCT116 cell line xenografted in NMRI nu/nu mouse at 15 umol/kg relative to control; format: functional, Homo sapiens
NCI/ADR-RES [3] = assay: Cytotoxicity against doxorubicin-resistant MCF7/Adr cell line by WST1 assay; format: functional, cell-based; details: Homo sapiens
HCT-116 [4] = assay: Cytotoxicity against HCT116 cell line xenografted in NMRI nu/nu mouse at 10 umol/kg relative to control; format: functional, Homo sapiens
HCT-116 [5] = assay: Cytotoxicity against HCT116 cell line xenografted in NMRI nu/nu mouse at 6.5 umol/kg relative to control; format: functional, Homo sapiens
NCI/ADR-RES [6] = assay: Cytotoxicity against doxorubicin-resistant MCF7/Adr cell line in presence of verapamil by WST1 assay; format: functional, cell-based; details: Homo sapiens
MES-SA/Dx5 [7] = assay: Cytotoxicity against doxorubicin-resistant MES-SA/dx5 cell line in presence of verapamil by WST1 assay; format: functional, cell-based; details: Homo sapiens
MES-SA/Dx5 [8] = assay: Cytotoxicity against MES-SA/dx5 cell line by WST1 assay; format: functional, cell-based; details: Homo sapiens
HCT-15 [9] = assay: Cytotoxicity against HCT15 cell line by WST1 assay; format: functional, cell-based; details: Homo sapiens
HCT-116 [10] = assay: Cytotoxicity against doxorubicin-sensitive HCT116 cell line in presence of verapamil by WST1 assay; format: functional, cell-based; details: Homo sapiens
HCT-15 [11] = assay: Cytotoxicity against doxorubicin-resistant HCT15 cell line in presence of verapamil by WST1 assay; format: functional, cell-based; details: Homo sapiens

Row | Compound | IC50 (HCT-116 [1]) [µM] | IC50 (MCF7) [µM] | Activity (HCT-116 [2]) [%] | IC50 (NCI/ADR-RES [3]) [µM] | Activity (HCT-116 [4]) [%] | Activity (HCT-116 [5]) [%] | IC50 (NCI/ADR-RES [6]) [µM] | IC50 (MES-SA/Dx5 [7]) [µM] | IC50 (MES-SA/Dx5 [8]) [µM] | IC50 (HCT-15 [9]) [µM] | IC50 (HCT-116 [10]) [µM] | IC50 (HCT-15 [11]) [µM]
1 | COc1cccc2c1C(=O)c1c(O)c3c(c(O)c1C2=O)C[C@@](O)(C(=O)COC(=O)CCCN1C(=O)CC(SCC(N)C(=O)N[C@@H](CO)C(=O)N[C@@H](CCCN=C(N)N)C(=O)N[C@@H](CCCN=C(N)N)C(=O)N[C@@H](C)C(=O)N[C@@H](CCCN=C(N)N)C(=O)N[C@@H](CCCN=C(N)N)C(=O)N[C@@H](CO)C(=O)N2CCC[C@H]2C(=O)N[C@@H](CCCN=C(N)N)C(=O)N[C@@H](Cc2c[nH]cn2)C(=O)N[C@@H](CC(C)C)C(=O)NCC(=O)N[C@@H](CO)C(=O)NCC(=O)N[C@@H](CS)C(=O)O)C1=O)C[C@@H]3O[C@H]1C[C@H](N)[C@H](O)[C@H](C)O1.O=C(O)C(F)(F)F (stereo partly specified) (H-[ξC](X1)SRRARRSPRHLGSGC-OH) | 2 | 9 | 39 | 532 | – | – | – | – | – | – | – | –
2 | COc1cccc2c1C(=O)c1c(O)c3c(c(O)c1C2=O)C[C@@](O)(C(=O)CSCC(N)C(=O)N[C@@H](CO)C(=O)N[C@@H](CCCN=C(N)N)C(=O)N[C@@H](CCCN=C(N)N)C(=O)N[C@@H](C)C(=O)N[C@@H](CCCN=C(N)N)C(=O)N[C@@H](CCCN=C(N)N)C(=O)N[C@@H](CO)C(=O)N1CCC[C@H]1C(=O)N[C@@H](CCCN=C(N)N)C(=O)N[C@@H](Cc1c[nH]cn1)C(=O)N[C@@H](CC(C)C)C(=O)NCC(=O)N[C@@H](CO)C(=O)NCC(=O)N[C@@H](CS)C(=O)O)CC3O[C@H]1C[C@H](N)[C@H](O)[C@H](C)O1.O=C(O)C(F)(F)F (stereo partly specified) (H-[ξC](X2)SRRARRSPRHLGSGC-OH) | 153 | 37 | – | 121 | 55.8 | – | – | – | – | – | – | –
3 | COc1cccc2c1C(=O)c1c(O)c3c(c(O)c1C2=O)C[C@@](O)(C(=O)CO)C[C@@H]3O[C@H]1C[C@H](NC(=O)CCCN2C(=O)CC(SCC(N)C(=O)N[C@@H](CO)C(=O)N[C@@H](CCCN=C(N)N)C(=O)N[C@@H](CCCN=C(N)N)C(=O)N[C@@H](C)C(=O)N[C@@H](CCCN=C(N)N)C(=O)N[C@@H](CCCN=C(N)N)C(=O)N[C@@H](CO)C(=O)N3CCC[C@H]3C(=O)N[C@@H](CCCN=C(N)N)C(=O)N[C@@H](Cc3c[nH]cn3)C(=O)N[C@@H](CC(C)C)C(=O)NCC(=O)N[C@@H](CO)C(=O)NCC(=O)N[C@@H](CS)C(=O)O)C2=O)[C@H](O)[C@H](C)O1 (stereo partly specified) (H-[ξC](X4)SRRARRSPRHLGSGC-OH) | 200 | 114 | – | 625 | – | – | – | – | – | – | – | –
4 | COc1cccc2c1Cc1cc3c(cc1C2)C[C@@](O)(C(=O)CSCNC(=O)NCC(=O)N[C@@H](CCCCN)C(=O)N[C@@H](CCCN=C(N)N)C(=O)N[C@@H](CCCCN)C(=O)N[C@@H](CCCCN)C(=O)N[C@@H](CCCCN)C(=O)NCC(=O)N[C@@H](CCCCN)C(=O)N[C@@H](CC(C)C)C(=O)NCC(=O)N[C@@H](CCCCN)C(=O)N[C@@H](CCCCN)C(=O)N[C@@H](CCCN=C(N)N)C(=O)N1CCC[C@H]1C(=O)N[C@@H](CCCN=C(N)N)C(=O)N[C@@H](CO)C(=O)N[C@@H](CCCN=C(N)N)C(=O)N[C@@H](CS)C(=O)O)C[C@@H]3O[C@H]1C[C@H](N)[C@H](O)[C@H](C)O1.O=C(O)C(F)(F)F ({X3-CO}-GKRKKKGKLGKKRPRSRC-OH) | 30 | 17 | – | 862 | 86.2 | – | – | – | – | – | – | –
5 | COc1cccc2c1C(=O)c1c(O)c3c(c(O)c1C2=O)C[C@@](O)(C(=O)CO)C[C@@H]3O[C@H]1C[C@H](N)[C@H](O)[C@H](C)O1.O=C(O)C(F)(F)F [DOXORUBICIN TRIFLUOROACETATE] | 3 | – | – | > 1000 | – | 49.6 | 30 | 21 | 600 | 283 | 2 | 20
6 | H-CVKRGLKLRHVRPRVTRMDV-OH | > 1000 | – | – | > 1000 | – | – | – | – | – | – | – | –
